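Values below derive from 48-hour exposures of cells grown in 96-well plates, with endpoints linearly interpolated between the two concentrations bracketing the appropriate inhibition level. Here, GI50 denotes the concentration required for 50% inhibition of growth. TGI: concentration producing complete growth inhibition.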
Columns and labels:
Test in all cases: NCI tumour cell line growth inhibition, 48 h
SN12C renal = system: SN12C renal
OVCAR-4 ovarian = system: OVCAR-4 ovarian
SF-539 CNS = system: SF-539 CNS
SNB-75 CNS = system: SNB-75 CNS
SK-MEL-5 melanoma = system: SK-MEL-5 melanoma
HT29 colon = system: HT29 colon
UACC-257 melanoma = system: UACC-257 melanoma
SK-MEL-28 melanoma = system: SK-MEL-28 melanoma
DU-145 prostate = system: DU-145 prostate
RPMI-8226 leukemia = system: RPMI-8226 leukemia

Structure (SMILES)	TGI (SN12C renal) [µM]	TGI (OVCAR-4 ovarian) [µM]	TGI (SF-539 CNS) [µM]	TGI (SNB-75 CNS) [µM]	TGI (SK-MEL-5 melanoma) [µM]	TGI (HT29 colon) [µM]	TGI (UACC-257 melanoma) [µM]	TGI (SK-MEL-28 melanoma) [µM]	TGI (DU-145 prostate) [µM]	TGI (RPMI-8226 leukemia) [µM]	GI50 (OVCAR-4 ovarian) [µM]	GI50 (SF-539 CNS) [µM]	GI50 (SNB-75 CNS) [µM]	GI50 (HT29 colon) [µM]	GI50 (UACC-257 melanoma) [µM]	GI50 (DU-145 prostate) [µM]	GI50 (RPMI-8226 leukemia) [µM]
COc1cccc2cc(C(N)=O)c(=N)oc12	> 100	> 100	> 100	> 100	> 100	> 100	> 100	> 100	> 100	> 100							
COc1cc(N=NN(C)C)c(C(C)c2c3cc(OC)c(OC)cc3cc[n+]2C)cc1OC (stereo unspecified)	> 100	> 100	47.3	> 100	56.8	> 100	> 100		> 100	70.4							
C=C=C(C)[Si](C)(C)C	> 100	> 100	> 100	> 100	> 100	> 100	> 100	> 100	> 100	> 100							
COc1cc(OC)c2c(c1OC)OCC(Cc1ccc(O)cc1)C2=O (stereo unspecified)	> 25	> 25	> 25	> 25	> 25	> 25	> 25	> 25	> 25	> 25							
c1ccc(N=C2SC(=NNc3ccccc3)SC2=Nc2ccccc2)cc1	> 100	> 100	> 100	> 100	> 100	> 100	> 100	> 100	> 100	> 100							
CCOP(=O)(Nc1ccc(-c2ccccc2)cc1)OCC		> 100		> 100	> 100	> 100	> 100	> 100	> 100	> 100							
NNC(=O)c1c(Cl)c(Cl)c(Cl)c(Cl)c1-c1nc2ccccc2[nH]1	> 100		> 100	38.2	29.9	61.8	28.1	53.4	38.3	> 100							
O=C1NC2(CCCCC2)N=C2C(Cl)CCCC12Cl (stereo unspecified)	> 100	> 100	> 100	> 100	> 100	> 100		> 100	> 100	> 100							
O=C(CN1CCN(C(=O)OCc2ccccc2)CCN(CC(=O)N2CCCCC2)CCN(C(=O)OCc2ccccc2)CC1)N1CCCCC1	26.8	25.4	27.8	16.5	19.2	28.6	9.75	27.9	> 54.8	37.3							
Cc1ccc(/C=C/C(=O)c2c([O-])on[n+]2-c2ccccc2)cc1	31.3	> 21.1	12.7	4.87	> 32.5	3.84	16	5.75	8.41	6.35							
CC(=O)O[C@H]1CC[C@]2(C)[C@H]3CC[C@@H]4[C@H]5[C@H](C(C)C)CC[C@]5(C(=O)OCC(CO)(CO)N=C(N)N)CC[C@@]4(C)[C@]3(C)CC[C@H]2C1(C)C		3.32	3.34	3.23		3.29	3.97		3.2	4.81	1.68	1.83	1.57	1.75	1.82	1.7	2.07
CC(=O)O[C@H]1C[C@]2(C)C(CCC3O[C@@]32C)[C@@]2(CC(c3ccoc3)OC2O)[C@@H]1C (stereo partly specified)	> 100	> 100	> 100	> 100	> 100	> 100	> 100	> 100	> 100	81.1							
Cc1ccc2c(c1)NC(=O)CCSSCCC(=O)N2	> 100	> 100	> 100		> 100	> 100	> 100	> 100	> 100	> 100							
O=C1c2ccccc2CC12Cc1cc3c(cc1C2=O)CCC3 (stereo unspecified)		> 100	> 100	> 100	> 100	> 100	> 100	> 100	> 100	> 100							
COc1ccc(C2SCC(=O)N2c2ccc(-c3ccc(-n4c(-c5ccccc5)nc5ccccc5c4=O)cc3)cc2)cc1 (stereo unspecified)	> 100	> 100	> 100		> 100	30.5	> 100	> 100	> 100	> 100							
CN(C)CCNc1ccc([N+](=O)[O-])c2nc3ccccc3c(N)c12	> 10	3.58	4.48	3.96	2.79	3.07	> 10	> 10	> 10	1.51							
O=C(CSc1nc(=O)[nH]c2nc[nH]c12)Nc1ccccc1	> 100	> 100	88.1	> 100	> 100	> 100	> 100	> 100	> 100	> 100							

Structure (SMILES)	TGI (SN12C renal) [µM]	TGI (OVCAR-4 ovarian) [µM]	TGI (SF-539 CNS) [µM]	TGI (SNB-75 CNS) [µM]	TGI (SK-MEL-5 melanoma) [µM]	TGI (HT29 colon) [µM]	TGI (UACC-257 melanoma) [µM]	TGI (SK-MEL-28 melanoma) [µM]	TGI (DU-145 prostate) [µM]	TGI (RPMI-8226 leukemia) [µM]	GI50 (OVCAR-4 ovarian) [µM]	GI50 (SF-539 CNS) [µM]	GI50 (SNB-75 CNS) [µM]	GI50 (HT29 colon) [µM]	GI50 (UACC-257 melanoma) [µM]	GI50 (DU-145 prostate) [µM]	GI50 (RPMI-8226 leukemia) [µM]
C/C(=N\Nc1ccc([N+](=O)[O-])cc1[N+](=O)[O-])c1ccc2ccccc2n1	> 100		> 100	> 100	> 100	> 100	> 100	> 100	> 100	> 100							
COC(=O)CC1(CNC(=O)OCc2ccccc2)OCCO1	> 100	> 100	> 100	> 100	> 100		> 100	> 100	> 100	> 100							
N#CCC(=O)Nn1c(CC#N)nnc1Cc1ccccc1			> 100	> 100	> 100	> 100	> 100	> 100	> 100	> 100							
CCOc1ccc2c(c1)/C(=C(\C(Cl)=C(Cl)Cl)[N+](=O)[O-])N2	> 100	> 100	> 100	> 100		> 100	> 100	> 100	> 100	> 100							
COc1cc(/C=C/C(C)=O)ccc1OP(=O)(O)O	> 100	> 100	> 100	> 100	> 100	> 100	> 100	> 100	> 100	> 100							
Cc1nn(C(=O)c2ccc(Cl)cc2)c2c1C(c1ccc([N+](=O)[O-])cc1)SC(N)=N2 (stereo unspecified)	> 10	> 10	> 10	> 10	> 10	> 10	> 10	> 10	> 10	> 10							
N#Cc1[nH]c(=O)n(-c2ccc(Cl)cc2)c1N	> 10	> 10	> 10		> 10	> 10	> 10	> 10	> 10	> 10							
CC1C(c2ccc3c(c2)OCO3)c2cc3c(cc2OC1N1CCCC1)OCO3 (stereo unspecified)	> 100		50.9	61.7	47.2	> 100	> 100	> 100	> 100	73.2							
CN1CCC2(CC1)C(=O)N(N1CCCCCC1)C(=O)N2c1ccccc1	> 100	> 100	> 100	> 100	> 100	> 100	> 100	> 100	> 100	> 100							
CCSC1=N/C(=C\c2ccccc2O)C(Nc2ccc(C)cc2)=N1	> 100		> 100	> 100	> 100	> 100	> 100	> 100	> 100	> 100							
O=C1c2ccccc2-c2nc(-c3cccnc3)cc3c2c1nc1ccccc13	> 100	> 100	> 100	> 100		> 100	> 100	> 100	> 100	> 100							
Cc1cccc(Nc2cn(COCc3ccccc3)c(=O)[nH]c2=O)c1	> 100	> 100			> 100	> 100	> 100	> 100	> 100	> 100							
O=C(N/N=C1\CCc2ccccc2C1)N/N=C1\CCc2ccccc2C1	> 10	> 10				> 10	> 10		> 10	> 10							
C1COC(NC(C2CC2)C2CC2)=N1		> 100	> 100	> 100	> 100	> 100	> 100	> 100	> 100	> 100							
O=P(O)(O)C(O)/C=C/c1ccccc1 (stereo unspecified)	> 100	> 100		> 100	> 100	> 100	> 100	> 100	> 100	> 100							
CC1CCCC2=C1C(c1ccc(Cl)cc1)n1c(s/c(=C\c3ccc(Cl)cc3)c1=O)=N2 (stereo unspecified)	> 100			> 100	> 100	> 100	> 100	> 100	> 100	> 100							
CC(=O)Nc1ncc(Sc2ccccc2C(=O)O)s1	> 100		> 100	> 100	> 100	> 100	> 100	> 100	> 100	> 100							

From PubChem BioAssay (NCI)
